From US11667632B2, “2-(1H-indazol-3-yl)-3H-imidazo[4,5-C]pyridines and their anti-inflammatory uses thereof” (BioSplice Therapeutics, Inc., priority 2015, dated 2023)
Marks after values point to notes of the source that are not given here.

Experiments:
IL-6 = assay: Inhibition of IL-6 in LPS-stimulated human monocyte cells (THP-1), HTRF; assay type: cell-based; settings: Homo sapiens; THP-1 cells, LPS 500 ng/mL, IL-6 by HTRF
Experimental: Human Monocyte Cell Culture: A human monocyte cell line (THP-1 cells; Catalog #TIB-202, ATCC, Manassas, Va.) was cultured in Roswell Park Memorial Institute (RPMI) 1640 Medium (Catalog #21870-100, Buffalo, N.Y.) with 1% L-glutamine, 1% HEPES, 1% sodium pyruvate, 2% sodium bicarbonate supplemented with 100 units/mL penicillin, 50 μg/mL streptomycin, 2-mercaptoethanol (0.05 mM) [basal medium] and 10% fetal bovine serum (Catalog #16140089, Life Technologies, Carlsbad, Calif.) at 37° C. and 5% CO2.
Compound Screening: THP-1 cells were cultured in basal media with 1% FBS for 24 hours before the start of the assay. Each compound of Formula (I) was dissolved in DMSO as a 10 mM stock and used to prepare compound source plates. Serial dilution (1:3, 10-point dose-response curves starting from 10 μM) and compound transfer was performed using the ECHO 550 (Labcyte, Sunnyvale, Calif.) into 384-well white low volume assay plates (Greiner Bio-One) with appropriate DMSO backfill for a final DMSO concentration of 0.1%. THP-1 cells were plated at 5000 cells/well in the 384-well plates and incubated at 37° C. for 2 h. 500 ng/mL of LPS was added after 2 hours and cells were incubated for another 22 hours at 37° C. Plates were spun in a centrifuge for 1 minute at 10,000 rpm and a mixture of anti-IL-6 XL665, and anti-IL-6 Cryptate diluted in reconstitution buffer (Cisbio Inc.) was added to each well. Following incubation for 3 hrs at room temperature, homogeneous time-resolved fluorescence (HTRF) was measured using the Envision (Perkin Elmer) at 665 nm and […]. The ratio of fluorescence at 665 nm to 620 nm was used as a readout for IL-6 quantification. All samples were processed in duplicate. Readings were normalized to DMSO treated cells and normalized activities were utilized for EC50 calculations using the dose-response log (inhibitor) vs. response -variable slope (four parameters) nonlinear regression feature available in GraphPad Prism 5.0 (or Dotmatics). For EC50 of >10 μM, the percent inhibition at 10 μM is provided.

[1] = Competitive slurry experiments between polymorph forms (thermodynamic stability); assay type: physicochemical; settings: slurried 3-5 days, XRD
Experimental: In order to find out the thermodynamic stability between the different forms, several competitive slurry experiments were carried out. Form 1, Form 2, Form 2*, Form 3, Form 4, Form 4*, Form 4**, Form 5, Form 7, Form 8, Form 9, Form 10, Form 11, Form 11*, and Form 13 (10 mg for each) was mixed and slurried in 2 mL of solvent at both RT and 50° C. The solids were slurried for 3-5 days and then analyzed by XRD.
In order to find out the thermodynamic stability between Form 13 and Form 9, several competitive slurry experiments were carried out. 15 mg of Form 1, Form 9 and Form 13 solid were mixed in 1 mL of toluene, IPAc, and n-butyl acetate, and slurried for 3 days at RT and 50° C.
The residual solid was analyzed by XRD.

[2] = Dynamic vapor sorption (DVS) scan; assay type: physicochemical; settings: for water absorption (DVS scan): at 90% RH
Source text: The purity of the Form 13 sample was 98.8%; the KF of an undried Form 13 sample was 35.7%.

[3] = Slurry experiments in various solvents (polymorph screen); assay type: physicochemical
Experimental: Slurry experiments in various solvents were performed. Approximately 30-80 mg of the starting solid (a non-stoichiometric hydrate of Form 1 having between […] and about 20% by weight water) was slurried in 39 different solvents (pure and binary solvents; the ratio of organic solvent/water (V/V) was […]) at RT and 50° C. for 5 days. Three solvates, one non-stoichiometric hydrate, and eleven non-solvated forms were identified. […] XRD of both wet and dry samples were scanned (FIG. 12A (dry sample)).
The slurry experiments identified 3 solvated forms from wet samples (Solvates 1, 2, and 3); 2 non-stoichiometric hydrates of Form 1 (Forms 12 and 13); and 11 non-solvated forms (Forms 1-11). In some instances, similar XRD scans with minor differences were obtained. These were considered to be part of the same class (e.g., the same form). For example, XRD scans of Form 2 and Form 2* were similar and were considered to belong to the same class. The solvated forms were obtained from wet sample analysis; after drying, the sample indicated a different XRD.
Solvate 1 was obtained from acetone at RT, and after drying, a low crystallinity solid was generated. Solvate 2 was obtained from acetone (at RT) and acetone/water (at RT), and after drying, Form 4** was generated. Solvate 3 was obtained from EtOH/water at RT, and after drying, Form 2 was generated.

[4] = slurry in Acetonitrile/water (5% water), RT
[5] = slurry in EA/water (5% water), RT
[6] = slurry in Heptane/water (5% water), RT
[7] = slurry in IPAc/water (5% water), RT
[8] = slurry in MA/water (5% water), 50° C.
[9] = slurry in MIBK/water (5% water), RT
[10] = slurry in MeOH/water (5% water), RT
[11] = slurry in MtBE/water (5% water), RT
[12] = slurry in n-Butyl acetate/water (5% water), RT
[13] = slurry in Acetonitrile/water (5% water), 50° C.
[14] = slurry in DCM/water (5% water), 50° C.
[15] = slurry in DCM/water (5% water), RT
[16] = slurry in Heptane/water (5% water), 50° C.
[17] = slurry in IPAc/water (5% water), 50° C.
[18] = slurry in MA/water (5% water), RT
[19] = slurry in MIBK/water (5% water), 50° C.
[20] = slurry in MeOH/water (5% water), 50° C.
[21] = slurry in MtBE/water (5% water), 50° C.
[22] = slurry in Toluene/water (5% water), 50° C.
[23] = slurry in Toluene/water (5% water), RT
[24] = slurry in n-Butanol/water (5% water), 50° C.
[25] = slurry in n-Butanol/water (5% water), RT
[26] = slurry in n-Butyl acetate/water (5% water), 50° C.
[27] = slurry in Acetone/water (5% water), RT
[28] = slurry in EtOH/water (5% water), RT

CN1CCN(c2cncc3[nH]c(-c4n[nH]c5ccc(-c6cccnc6)cc45)nc23)CC1 [4*]
EC50 (IL-6): 74 nM | thermodynamic stability between forms (competitive slurry) ([1]; EA at RT and 50° C.): most stable

CC(C)(C)CC(=O)Nc1cncc(-c2ccc3[nH]nc(-c4nc5c(-c6ccsc6)cncc5[nH]4)c3c2)c1 [Compound 304]
EC50 (IL-6): 40 nM

c1cc(-c2cncc3[nH]c(-c4n[nH]c5ccc(-c6cncc(CNCC7CCCC7)c6)cc45)nc23)cs1 [Compound 311]
EC50 (IL-6): 216 nM

c1cncc(-c2ccc3[nH]nc(-c4nc5c(-c6ccoc6)cncc5[nH]4)c3c2)c1 [Compound 315]
EC50 (IL-6): 207 nM

CC(C)(C)C(=O)Nc1cncc(-c2ccc3[nH]nc(-c4nc5c(-c6ccoc6)cncc5[nH]4)c3c2)c1 [Compound 319]
EC50 (IL-6): 78 nM

O=C(Cc1ccccc1)Nc1cncc(-c2ccc3[nH]nc(-c4nc5c(-c6ccoc6)cncc5[nH]4)c3c2)c1 [Compound 321]
EC50 (IL-6): 697 nM

CCCCC(=O)Nc1cncc(-c2ccc3[nH]nc(-c4nc5c(-c6ccoc6)cncc5[nH]4)c3c2)c1 [Compound 329]
EC50 (IL-6): 58 nM

O=C(Nc1cncc(-c2ccc3[nH]nc(-c4nc5c(-c6ccoc6)cncc5[nH]4)c3c2)c1)C1CC1 [Compound 330]
EC50 (IL-6): 5870 nM

O=C(Nc1cncc(-c2ccc3[nH]nc(-c4nc5c(-c6ccoc6)cncc5[nH]4)c3c2)c1)C1CCCCC1 [Compound 333]
EC50 (IL-6): 103 nM

Fc1cccc(-c2cncc3[nH]c(-c4n[nH]c5ccc(-c6cncc(CN7CCC(F)(F)C7)c6)cc45)nc23)c1 [Compound 336]
EC50 (IL-6): 71 nM

FC1(F)CCN(Cc2cncc(-c3ccc4[nH]nc(-c5nc6c(-c7cccnc7)cncc6[nH]5)c4c3)c2)C1 [Compound 339]
EC50 (IL-6): 97 nM

FC1(F)CCN(Cc2cncc(-c3ccc4[nH]nc(-c5nc6c(N7CCCCC7)cncc6[nH]5)c4c3)c2)C1 [Compound 342]
EC50 (IL-6): 109 nM

FC1(F)CCN(Cc2cncc(-c3ccc4[nH]nc(-c5nc6c(-c7ccsc7)cncc6[nH]5)c4c3)c2)C1 [Compound 346]
EC50 (IL-6): 37 nM

CC(C)CC(=O)Nc1cncc(-c2ccc3[nH]nc(-c4nc5c(-c6cc(F)cc(NCCN(C)C)c6)cncc5[nH]4)c3c2)c1 [Compound 349]
EC50 (IL-6): 34 nM

CC(C)CC(=O)Nc1cncc(-c2ccc3[nH]nc(-c4nc5c(-c6cc(F)cc(CNS(C)(=O)=O)c6)cncc5[nH]4)c3c2)c1 [Compound 373]
EC50 (IL-6): 34 nM

CC(C)CC(=O)Nc1cncc(-c2ccc3[nH]nc(-c4nc5c(-c6cccs6)cncc5[nH]4)c3c2)c1 [Compound 397]
EC50 (IL-6): 14 nM

CC(C)CC(=O)Nc1cncc(-c2ccc3[nH]nc(-c4nc5c(-c6cccc(F)c6)cncc5[nH]4)c3c2)c1 [Form 1]
water absorption (DVS scan) [2]: 17%

CC(C)CC(=O)Nc1cncc(-c2ccc3[nH]nc(-c4nc5c(-c6cccc(F)c6)cncc5[nH]4)c3c2)c1 [Form 9]
change of form before and after the DVS scan [2]: did not change its form | water absorption (DVS scan) [2]: 0.8%

CC(C)CC(=O)Nc1cncc(-c2ccc3[nH]nc(-c4nc5c(-c6cccc(F)c6)cncc5[nH]4)c3c2)c1 [Form 12]
Form, Dry [3, 4]: Form 1 | Form, Wet [3, 4]: Form 12 | Form, Dry [3, 5]: Form 1 | Form, Wet [3, 5]: Form 12 | Form, Dry [3, 6]: Form 12 | Form, Wet [3, 6]: Form 13 | Form, Dry [3, 7]: Form 1 | Form, Wet [3, 7]: Form 12 | Form, Dry [3, 8]: Form 4 | Form, Wet [3, 8]: Form 12 | Form, Dry [3, 9]: Form 1 | Form, Wet [3, 9]: Form 12 | Form, Dry [3, 10]: Form 1 | Form, Wet [3, 10]: Form 12 | Form, Dry [3, 11]: Form 1 | Form, Wet [3, 11]: Form 12 | Form, Dry [3, 12]: Form 12 | Form, Wet [3, 12]: Form 13

CC(C)CC(=O)Nc1cncc(-c2ccc3[nH]nc(-c4nc5c(-c6cccc(F)c6)cncc5[nH]4)c3c2)c1 [Form 13]
thermodynamic stability between forms (competitive slurry) ([1]; water at RT and 50° C.): most stable | water absorption (DVS scan) [2]: 17% | Form, Dry [3, 13]: Form 13 | Form, Wet [3, 13]: Form 13 | Form, Dry ([3]; slurry in DCM, 50° C.): Form 13 | Form, Wet ([3]; slurry in DCM, 50° C.): Form 13 | Form, Dry [3, 14]: Form 1 | Form, Wet [3, 14]: Form 13 | Form, Dry [3, 15]: Form 1 | Form, Wet [3, 15]: Form 13 | Form, Dry ([3]; slurry in Heptane, 50° C.): Form 13 | Form, Wet ([3]; slurry in Heptane, 50° C.): Form 13 | Form, Dry [3, 16]: Form 1 | Form, Wet [3, 16]: Form 13 | Form, Dry [3, 6]: Form 12 | Form, Wet [3, 6]: Form 13 | Form, Dry [3, 17]: Form 13 | Form, Wet [3, 17]: Form 13 | Form, Dry [3, 18]: Form 1 | Form, Wet [3, 18]: Form 13 | Form, Dry [3, 19]: Form 1 | Form, Wet [3, 19]: Form 13 | Form, Dry ([3]; slurry in MeOH, RT): Form 1 | Form, Wet ([3]; slurry in MeOH, RT): Form 13 | Form, Dry [3, 20]: Form 13 | Form, Wet [3, 20]: Form 13 | Form, Dry [3, 21]: Form 13 | Form, Wet [3, 21]: Form 13 | Form, Dry [3, 22]: Form 13 | Form, Wet [3, 22]: Form 13 | Form, Dry [3, 23]: Form 1 | Form, Wet [3, 23]: Form 13 | Form, Dry [3, 24]: Form 1 | Form, Wet [3, 24]: Form 13 | Form, Dry [3, 25]: Form 13 | Form, Wet [3, 25]: Form 13 | Form, Dry [3, 26]: Form 1 | Form, Wet [3, 26]: Form 13 | Form, Dry [3, 12]: Form 12 | Form, Wet [3, 12]: Form 13 | Form, Dry ([3]; slurry in water, 50° C.): Form 13 | Form, Wet ([3]; slurry in water, 50° C.): Form 13 | Form, Dry ([3]; slurry in water, RT): Form 1 | Form, Wet ([3]; slurry in water, RT): Form 13

CC(C)CC(=O)Nc1cncc(-c2ccc3[nH]nc(-c4nc5c(-c6cccc(F)c6)cncc5[nH]4)c3c2)c1 [Solvate 1]
Form, Dry ([3]; slurry in Acetone, RT): Low | Form, Wet ([3]; slurry in Acetone, RT): Solvate 1

CC(C)CC(=O)Nc1cncc(-c2ccc3[nH]nc(-c4nc5c(-c6cccc(F)c6)cncc5[nH]4)c3c2)c1 [Solvate 2]
Form, Dry ([3]; slurry in Acetone, 50° C.): Form 4** | Form, Wet ([3]; slurry in Acetone, 50° C.): Solvate 2 | Form, Dry [3, 27]: Form 4** | Form, Wet [3, 27]: Solvate 2

CC(C)CC(=O)Nc1cncc(-c2ccc3[nH]nc(-c4nc5c(-c6cccc(F)c6)cncc5[nH]4)c3c2)c1 [Solvate 3]
Form, Dry [3, 28]: Form 2 | Form, Wet [3, 28]: Solvate 3
